Our source for the IC50 values is ChEMBL document CHEMBL1146957, “An efficient, asymmetric solid-phase synthesis of benzothiadiazine-substituted tetramic acids: potent inhibitors of the hepatitis C virus RNA-dependent RNA polymerase” (Bioorg Med Chem Lett, 2006).

In experiment [1] the target is RNA-directed RNA polymerase (Hepacivirus hominis, UniProt O39930). Put plainly: Inhibition of HCV NS5B RNA dependent RNA polymerase.
The test system of the next experiment is Hepatitis C virus. Put plainly: Inhibition of HCV replication. The class given is functional, organism-based, Hepacivirus hominis.

RNA-directed RNA polymerase, sequence (O39930 whole entry): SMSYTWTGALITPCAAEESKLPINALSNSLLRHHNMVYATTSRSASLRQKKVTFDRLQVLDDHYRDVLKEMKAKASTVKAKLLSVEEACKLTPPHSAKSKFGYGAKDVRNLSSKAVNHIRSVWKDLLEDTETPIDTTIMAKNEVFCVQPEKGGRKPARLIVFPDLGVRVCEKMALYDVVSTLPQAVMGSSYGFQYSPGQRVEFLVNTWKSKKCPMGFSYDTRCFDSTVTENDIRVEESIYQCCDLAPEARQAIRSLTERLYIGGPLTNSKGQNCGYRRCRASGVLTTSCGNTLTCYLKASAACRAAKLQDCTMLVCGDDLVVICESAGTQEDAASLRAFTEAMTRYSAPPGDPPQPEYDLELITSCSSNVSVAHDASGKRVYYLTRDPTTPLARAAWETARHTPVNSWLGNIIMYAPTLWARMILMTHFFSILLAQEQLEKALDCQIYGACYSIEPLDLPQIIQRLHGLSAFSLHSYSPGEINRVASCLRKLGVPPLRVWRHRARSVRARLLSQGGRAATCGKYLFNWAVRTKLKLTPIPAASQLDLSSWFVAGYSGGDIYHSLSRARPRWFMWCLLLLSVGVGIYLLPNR

Take `CC(C)CCn1c(=O)c(C2=NS(=O)(=O)c3ccccc3N2)c(O)c2ccccc21`: the 50% inhibitory concentration (IC50) (as a rule, the midpoint of a concentration-inhibition curve) in experiment [1] was found to be 200 nM; in the experiment on Hepatitis C virus, 269 µM.

For the compound `CC(C)(C)CCN1C(=O)C(C2=NS(=O)(=O)c3ccccc3N2)=C(O)[C@@H]1C1CCCCC1`, in experiment [1], the IC50 came to 486 nM.

In experiment [1], `CC(C)(C)CCN1C(=O)C(C2=NS(=O)(=O)c3ccccc3N2)=C(O)[C@@H]1C(C)(C)C` registered a 50% inhibitory concentration (IC50) of 1.7 nM.

With `CC(C)(C)[C@H]1C(O)=C(C2=NS(=O)(=O)c3ccccc3N2)C(=O)N1Cc1ccccc1`, the IC50 in experiment [1] is 22 nM; in the experiment with Hepatitis C virus it was 13 µM.

The compound `O=C1C(C2=NS(=O)(=O)c3ccccc3N2)=C(O)[C@H](Cc2cccnc2)N1Cc1ccc(F)cc1` registered a 50% inhibitory concentration (IC50) in experiment [1] of 2470 nM.

As for `CC(C)CCN1C(=O)C(C2=NS(=O)(=O)c3ccccc3N2)=C(O)[C@@H]1C(C)(C)C`, the 50% inhibitory concentration (IC50) in experiment [1] is 18 nM; in the experiment with Hepatitis C virus, 8 µM.

For `CCC(C)[C@H]1C(O)=C(C2=NS(=O)(=O)c3ccccc3N2)C(=O)N1Cc1ccccc1` (some centres undefined), the half-inhibitory concentration (IC50) in experiment [1] is 88 nM; in the experiment with Hepatitis C virus it was 37 µM.

Turning to `CC(C)CCN1C(=O)C(C2=NS(=O)(=O)c3ccccc3N2)=C(O)[C@@H]1C(C)C`, the figures for the IC50 (in experiment [1]; in the experiment on Hepatitis C virus) were 147 nM and 159 µM, respectively.

On to `CC(C)CCN1C(=O)C(C2=NS(=O)(=O)c3ccccc3N2)=C(O)[C@@H]1Cc1ccccc1`, for which the half-maximal inhibitory concentration (IC50) in experiment [1] was 3570 nM; in the experiment with Hepatitis C virus, over 60 µM.

On to `CC(C)(C)[C@H]1C(O)=C(C2=NS(=O)(=O)c3ccccc3N2)C(=O)N1Cc1ccc(F)cc1`, for which the IC50 in experiment [1] is 59 nM.

In experiment [1], `CC(C)(C)CCN1C(=O)C(C2=NS(=O)(=O)c3ccccc3N2)=C(O)[C@@H]1c1ccc(F)cc1` came in with a 50% inhibitory concentration (IC50) of over 748 nM.

For the compound `CC(C)(C)[C@H]1C(O)=C(C2=NS(=O)(=O)c3ccccc3N2)C(=O)N1CCC1CC1`, half-maximal inhibition in experiment [1] (IC50) was put at 530 nM.

`CC(C)(C)[C@H]1C(O)=C(C2=NS(=O)(=O)c3ccccc3N2)C(=O)N1Cc1ccccn1` gave a half-maximal inhibitory concentration (IC50) in experiment [1] of over 100000 nM.
